Where two headings read alike, the source gives them in different places.
Tested on: hiPSC-CMs (iCell-Cardiomyocytes^2)
Outline: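 Monolayers of hiPSC-CMs on fibronectin-coated MEA plates, 50 K/well, kept at 37°C, 5% CO2; compounds added in 0.1% final DMSO after 5-min baseline. Field potential and impedance parameters expressed as mean ± SD percent change from baseline; arrhythmic events noted; cytotoxicity fluorescence normalized to DMSO, Kruskal-Wallis.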

For `COc1nc(N)nc2c1ncn2[C@@H]1O[C@H](COP(=O)(N[C@@H](C)C(=O)OCC(C)(C)C)Oc2cccc3ccccc23)[C@@H](O)[C@@]1(C)O` (stereo partly shown) [BMS-986094], the “BR (beating rate), % change from baseline” value (“BR (beating rate), % change” below) (0.3 µM, 2h) was 5±3%, the “Beating below threshold, number of observations/total well numbers” value (0.3 µM, 2h) was 0/5 and the “Cessation of beating, number of observations/total well numbers” value (0.3 µM, 2h) was 0/5. For the same molecule, the “EAD, number of observations/total well numbers” value (0.3 µM, 2h) was 0/5, the “FPD (field-potential duration), % change from baseline” value (0.3 µM, 2h) was 0.5±1% and the “FPDc (field-potential duration corrected by beat-rate), % change from baseline” value (“FPDc … % change from baseline” below) (0.3 µM, 2h) was 2.1±1.1%. The “Flat T-wave-like, number of observations/total well numbers” value (0.3 µM, 2h) was 0/5, the “BR (beating rate), % change” value (0.3 µM, 24h) was 8±3% and the “Beating below threshold, number of observations/total well numbers” value (0.3 µM, 24h) was 0/5. The “Cessation of beating, number of observations/total well numbers” value (0.3 µM, 24h) was 0/5, the “EAD, number of observations/total well numbers” value (0.3 µM, 24h) was 0/5 and the “FPD (field-potential duration), % change from baseline” value (0.3 µM, 24h) was -5.3±4.1%. The “FPDc … % change from baseline” value (0.3 µM, 24h) was -2.7±3.8%, the “Flat T-wave-like, number of observations/total well numbers” value (0.3 µM, 24h) was 0/5 and the “BR (beating rate), % change” value (0.3 µM, 48h) was 14±5%. The “Beating below threshold, number of observations/total well numbers” value (0.3 µM, 48h) was 0/5, the “Cessation of beating, number of observations/total well numbers” value (0.3 µM, 48h) was 0/5 and the “EAD, number of observations/total well numbers” value (0.3 µM, 48h) was 0/5. For the same molecule, the “FPD (field-potential duration), % change from baseline” value (0.3 µM, 48h) was -12.4±4.7%, the “FPDc … % change from baseline” value (0.3 µM, 48h) was -8.4±4.1% and the “Flat T-wave-like, number of observations/total well numbers” value (0.3 µM, 48h) was 0/5. The “BR (beating rate), % change” value (0.3 µM, 72h) was 22±3 %, the “Beating below threshold, number of observations/total well numbers” value (0.3 µM, 72h) was 0/5 and the “Cessation of beating, number of observations/total well numbers” value (0.3 µM, 72h) was 0/5. For the same molecule, the “EAD, number of observations/total well numbers” value (0.3 µM, 72h) was 0/5, the “FPD (field-potential duration), % change from baseline” value (0.3 µM, 72h) was -17.3±3.6 % and the “FPDc … % change from baseline” value (0.3 µM, 72h) was -11.6±3.5 %. For the same molecule, the “Flat T-wave-like, number of observations/total well numbers” value (0.3 µM, 72h) was 0/5, the “BR (beating rate), % change” value (0.3 µM, 96h) was 30±11 % and the “Beating below threshold, number of observations/total well numbers” value (0.3 µM, 96h) was 0/5. The “Cessation of beating, number of observations/total well numbers” value (0.3 µM, 96h) was 0/5, the “EAD, number of observations/total well numbers” value (0.3 µM, 96h) was 0/5 and the “FPD (field-potential duration), % change from baseline” value (0.3 µM, 96h) was -20.4±2.9 %. For the same molecule, the “FPDc … % change from baseline” value (0.3 µM, 96h) was -14.3±1.9 %, the “Flat T-wave-like, number of observations/total well numbers” value (0.3 µM, 96h) was 1/5 and the “BR (beating rate), % change” value (1 µM, 2h) was 6±2%. For the same molecule, the “Beating below threshold, number of observations/total well numbers” value (1 µM, 2h) was 0/5, the “Cessation of beating, number of observations/total well numbers” value (1 µM, 2h) was 0/5 and the “EAD, number of observations/total well numbers” value (1 µM, 2h) was 0/5. For the same molecule, the “FPD (field-potential duration), % change from baseline” value (1 µM, 2h) was -3.6±2.3%, the “FPDc … % change from baseline” value (1 µM, 2h) was -1.8±2.1% and the “Flat T-wave-like, number of observations/total well numbers” value (1 µM, 2h) was 1/5. The “BR (beating rate), % change” value (1 µM, 24h) was 17±5%, the “Beating below threshold, number of observations/total well numbers” value (1 µM, 24h) was 0/5 and the “Cessation of beating, number of observations/total well numbers” value (1 µM, 24h) was 0/5. For the same molecule, the “EAD, number of observations/total well numbers” value (1 µM, 24h) was 0/5, the “FPD (field-potential duration), % change from baseline” value (1 µM, 24h) was -10.7±2.3 % and the “FPDc … % change from baseline” value (1 µM, 24h) was -6±2.7%. For the same molecule, the “Flat T-wave-like, number of observations/total well numbers” value (1 µM, 24h) was 0/5, the “BR (beating rate), % change” value (1 µM, 48h) was 12±3% and the “Beating below threshold, number of observations/total well numbers” value (1 µM, 48h) was 0/5. For the same molecule, the “Cessation of beating, number of observations/total well numbers” value (1 µM, 48h) was 0/5, the “EAD, number of observations/total well numbers” value (1 µM, 48h) was 0/5 and the “FPD (field-potential duration), % change from baseline” value (1 µM, 48h) was -5.8±3 %. The “FPDc … % change from baseline” value (1 µM, 48h) was -2.5±2.1 %, the “Flat T-wave-like, number of observations/total well numbers” value (1 µM, 48h) was 3/5 and the “BR (beating rate), % change” value (1 µM, 72h) was 17±6 %. The “Beating below threshold, number of observations/total well numbers” value (1 µM, 72h) was 0/5, the “Cessation of beating, number of observations/total well numbers” value (1 µM, 72h) was 0/5 and the “EAD, number of observations/total well numbers” value (1 µM, 72h) was 0/5. The “FPD (field-potential duration), % change from baseline” value (1 µM, 72h) was -7.5±0 %, the “FPDc … % change from baseline” value (1 µM, 72h) was -2.3±0% and the “Flat T-wave-like, number of observations/total well numbers” value (1 µM, 72h) was 4/5. For the same molecule, the “BR (beating rate), % change” value (1 µM, 96h) was 14±8 %, the “Beating below threshold, number of observations/total well numbers” value (1 µM, 96h) was 0/5 and the “Cessation of beating, number of observations/total well numbers” value (1 µM, 96h) was 0/5. For the same molecule, the “EAD, number of observations/total well numbers” value (1 µM, 96h) was 0/5, the “FPD (field-potential duration), % change from baseline” value (1 µM, 96h) was -7.9±0 % and the “FPDc … % change from baseline” value (1 µM, 96h) was -5.5±0 %. For the same molecule, the “Flat T-wave-like, number of observations/total well numbers” value (1 µM, 96h) was 4/5, the “BR (beating rate), % change” value (3 µM, 72h) was 12±6 % and the “Beating below threshold, number of observations/total well numbers” value (3 µM, 72h) was 0/5. For the same molecule, the “Cessation of beating, number of observations/total well numbers” value (3 µM, 72h) was 0/5, the “EAD, number of observations/total well numbers” value (3 µM, 72h) was 0/5 and the “Flat T-wave-like, number of observations/total well numbers” value (3 µM, 72h) was 5/5. The “BR (beating rate), % change” value (3 µM, 96h) was 20±12 %, the “Beating below threshold, number of observations/total well numbers” value (3 µM, 96h) was 0/5 and the “Cessation of beating, number of observations/total well numbers” value (3 µM, 96h) was 1/5. The “EAD, number of observations/total well numbers” value (3 µM, 96h) was 0/5, the “Flat T-wave-like, number of observations/total well numbers” value (3 µM, 96h) was 4/5 and the “BR (beating rate), % change” value (3 µM, 2h) was 7±1%. The “Beating below threshold, number of observations/total well numbers” value (3 µM, 2h) was 0/5, the “Cessation of beating, number of observations/total well numbers” value (3 µM, 2h) was 0/5 and the “EAD, number of observations/total well numbers” value (3 µM, 2h) was 0/5. The “FPD (field-potential duration), % change from baseline” value (3 µM, 2h) was -3.6±1.9%, the “FPDc … % change from baseline” value (3 µM, 2h) was -1.6±1.8% and the “Flat T-wave-like, number of observations/total well numbers” value (3 µM, 2h) was 0/5. The “BR (beating rate), % change” value (3 µM, 24h) was 20±3 %, the “Beating below threshold, number of observations/total well numbers” value (3 µM, 24h) was 0/5 and the “Cessation of beating, number of observations/total well numbers” value (3 µM, 24h) was 0/5. For the same molecule, the “EAD, number of observations/total well numbers” value (3 µM, 24h) was 0/5, the “FPD (field-potential duration), % change from baseline” value (3 µM, 24h) was -17±4.9 % and the “FPDc … % change from baseline” value (3 µM, 24h) was -11.8±5.5 %. For the same molecule, the “Flat T-wave-like, number of observations/total well numbers” value (3 µM, 24h) was 0/5, the “BR (beating rate), % change” value (3 µM, 48h) was 13±3% and the “Beating below threshold, number of observations/total well numbers” value (3 µM, 48h) was 0/5. For the same molecule, the “Cessation of beating, number of observations/total well numbers” value (3 µM, 48h) was 0/5, the “EAD, number of observations/total well numbers” value (3 µM, 48h) was 0/5 and the “FPD (field-potential duration), % change from baseline” value (3 µM, 48h) was -0.5±0%. For the same molecule, the “FPDc … % change from baseline” value (3 µM, 48h) was 2.6±0%, the “Flat T-wave-like, number of observations/total well numbers” value (3 µM, 48h) was 4/5 and the “BR (beating rate), % change” value (10 µM, 2h) was 4±8%. The “Beating below threshold, number of observations/total well numbers” value (10 µM, 2h) was 0/5, the “Cessation of beating, number of observations/total well numbers” value (10 µM, 2h) was 0/5 and the “EAD, number of observations/total well numbers” value (10 µM, 2h) was 0/5. The “FPD (field-potential duration), % change from baseline” value (10 µM, 2h) was -5.7±2.3%, the “FPDc … % change from baseline” value (10 µM, 2h) was -4.4±2.8 % and the “Flat T-wave-like, number of observations/total well numbers” value (10 µM, 2h) was 0/5. For the same molecule, the “BR (beating rate), % change” value (10 µM, 24h) was 30±4 %, the “Beating below threshold, number of observations/total well numbers” value (10 µM, 24h) was 0/5 and the “Cessation of beating, number of observations/total well numbers” value (10 µM, 24h) was 0/5. The “EAD, number of observations/total well numbers” value (10 µM, 24h) was 0/5, the “FPD (field-potential duration), % change from baseline” value (10 µM, 24h) was -24.2±3.7 % and the “FPDc … % change from baseline” value (10 µM, 24h) was -17.1±3.6 %. The “Flat T-wave-like, number of observations/total well numbers” value (10 µM, 24h) was 1/5, the “BR (beating rate), % change” value (10 µM, 48h) was 24±6 % and the “Beating below threshold, number of observations/total well numbers” value (10 µM, 48h) was 0/5. For the same molecule, the “Cessation of beating, number of observations/total well numbers” value (10 µM, 48h) was 0/5, the “EAD, number of observations/total well numbers” value (10 µM, 48h) was 0/5 and the “FPD (field-potential duration), % change from baseline” value (10 µM, 48h) was -10.6±0 %. For the same molecule, the “FPDc … % change from baseline” value (10 µM, 48h) was -2.4±0 %, the “Flat T-wave-like, number of observations/total well numbers” value (10 µM, 48h) was 4/5 and the “BR (beating rate), % change” value (10 µM, 72h) was 32±14 %. The “Beating below threshold, number of observations/total well numbers” value (10 µM, 72h) was 0/5, the “Cessation of beating, number of observations/total well numbers” value (10 µM, 72h) was 0/5 and the “EAD, number of observations/total well numbers” value (10 µM, 72h) was 0/5. The “Flat T-wave-like, number of observations/total well numbers” value (10 µM, 72h) was 5/5, the “BR (beating rate), % change” value (10 µM, 96h) was 29±0 % and the “Beating below threshold, number of observations/total well numbers” value (10 µM, 96h) was 1/5. For the same molecule, the “Cessation of beating, number of observations/total well numbers” value (10 µM, 96h) was 3/5, the “EAD, number of observations/total well numbers” value (10 µM, 96h) was 0/5 and the “Flat T-wave-like, number of observations/total well numbers” value (10 µM, 96h) was 1/5. For the same molecule, the T-wave morphology (72 h and 96 h, two highest concentrations (10 and 1 µM)) was “flattening of the T-wave”.
